The values below are quoted from earlier work in patent publication US20210319872A1, “DRUG AND DEVICE COMBINATION PRODUCTS WITH IMPROVED SAFETY AND EFFICACY PROFILES” (priority 2016, published 2021).

Read-outs that look alike come from different tables or passages of the source.

Setting [1] is: refractory oropharyngeal candidiasis.

`CCCCCCCCc1ccc(CCC(N)(CO)CO)cc1` [Gilenya]: under “5 times ULN or greater (ALT, AST)”, the Increased liver enzymes entry is recorded as “times ULN or greater (ALT, AST), 4.5%)”. For the same compound, under “All elevations (ALT/GGT/AST)”, the Increased liver enzymes was 15%. Moreover, the Infectious disease (All infections) is reported as 72%. Moreover, for the setting “in vivo”, the Abdominal pain was 11%; the Atrioventricular block result is “Cardiovascular: Atrioventricular block (up to 4.7%),”; the Backache entry is recorded as “Musculoskeletal: Backache (10%), Pain, In Extremity (10%)”; the Bradyarrhythmia entry is given as “Bradyarrhythmia (3%.)”. In addition, under “in vivo”, the Cough is 12%; the Diarrhea is listed as 13%; the Headache result is reported as “Neurologic: Headache (25%)”; the Herpesvirus infection entry is given as “Immunologic: Cryptococcosis, Herpesvirus infection (9%),”. Besides, where the note is “in vivo”, the Influenza entry is on record as “Immunologic: Influenza (11%)”; the “Lymphocytopenia (Severe)” value is reported as “Hematologic: Lymphocytopenia (Severe) (7%)”; the “Pain, In Extremity” value was “Musculoskeletal: Backache (10%), Pain, In Extremity (10%)”; the Sinusitis is recorded as 11%. For the setting “listed without frequency”, the “Serious side effect, Dermatologic” value is “Dermatologic: Malignant melanoma”; the “Serious side effect, Immunologic” value is given as “Immunologic: Cryptococcosis, Herpesvirus infection (9%),”; the “Serious side effect, Neurologic” value is “Cryptococcal meningitis”. Moreover, the Infectious disease (serious infections) was 2.3%. For the same compound, for the setting “up to 3 times ULN (ALT, AST)”, the Increased liver enzymes is on record as 14%.
As for `NS(=O)(=O)c1cc(C(=O)O)c(NCc2ccco2)cc1Cl` [Furosemide (Lasix)], where the note is “in vivo”, the “Hyperuricemia (incidence)” value is given as “Endocrine metabolic: Hyperuricemia (40%), Hypomagnesemia”.
Regarding `COc1cccc(C2(O)CCCCC2CN(C)C)c1` (stereo not drawn) [Tramadol (Ultram)], for the setting “in vivo”, the Anaphylactoid reaction result is on record as “Immunologic: Anaphylactoid reaction (less than 1%)”; the Constipation entry is on record as “Gastrointestinal: Constipation (10% to 46%), Nausea (13% to”; the Dizziness result was “Neurologic: Dizziness (7% to 33%), Headache (3% to 32%),”; the Dyspnea entry is “Respiratory: Dyspnea (less than 5%), Respiratory depression”. For the same compound, under “in vivo”, the Flushing result is “Dermatologic: Flushing (7.7% to 15.8%), Pruritus (3% to 11.9%)”; the Headache entry is given as “Neurologic: Dizziness (7% to 33%), Headache (3% to 32%),”; the Insomnia entry is listed as “Insomnia (1% to 10.9%), Somnolence (4% to 25%)”; the Myocardial infarction result was “Cardiovascular: Myocardial infarction (0.5% to less than 1%)”. Besides, for the setting “in vivo”, the Pancreatitis entry was “Gastrointestinal: Pancreatitis (0.5% to less than 1%)”; the Pruritus entry was “Dermatologic: Flushing (7.7% to 15.8%), Pruritus (3% to 11.9%)”; the Serotonin syndrome result is given as “Other: Serotonin syndrome (less than 1%)”; the Somnolence entry is on record as “Insomnia (1% to 10.9%), Somnolence (4% to 25%)”. For the same compound, where the note is “in vivo”, the Vomiting is 40%), Vomiting (3% to 17%), Xerostomia (1% to 10%) and the Xerostomia was 40%), Vomiting (3% to 17%), Xerostomia (1% to 10%).
Regarding `C[C@H]1O[C@@H](O[C@H]2[C@@H](O)C[C@H](O[C@H]3[C@@H](O)C[C@H](O[C@H]4CC[C@@]5(C)[C@H](CC[C@@H]6[C@@H]5CC[C@]5(C)[C@@H](C7=CC(=O)OC7)CC[C@]65O)C4)O[C@@H]3C)O[C@@H]2C)C[C@H](O)[C@@H]1O` [Digitoxin], for the setting “in vivo”, the “Common side effects, listed without incidence” value is given as “Enlarged Breasts” and the “Infrequent side effects, listed” value is “Sinus Bradycardia”.
For `CC[C@@H]([C@H](C)O)n1ncn(-c2ccc(N3CCN(c4ccc(OC[C@@H]5CO[C@@](Cn6cncn6)(c6ccc(F)cc6F)C5)cc4)CC3)cc2)c1=O` [Noxafil], under “frequency in words”, the Cholestasis result is “Hepatic: Cholestasis (rare), Liver failure (rare)” and the Liver failure entry is “Hepatic: Cholestasis (rare), Liver failure (rare)”. Further, the Torsades de pointes result (in vivo) is listed as “pointes (less than 5%)”. For the same compound, for the setting “oropharyngeal candidiasis”, the Diarrhea result is “oropharyngeal candidiasis, 10%; refractory oropharyngeal”; the Fever is given as 6%; the Headache was 8%; the Nausea result is given as “oropharyngeal candidiasis, 9%; refractory oropharyngeal”. Besides, for the setting “oropharyngeal candidiasis”, the Vomiting result is reported as “oropharyngeal candidiasis, 7%; refractory oropharyngeal”. For the same compound, under setting [1], the Diarrhea was 13%, the Fever was 34%, the Headache is reported as 20% and the Nausea is 29%. For the same compound, the Vomiting result under setting [1] is reported as “candidiasis, 28%)”.
With `COC(=O)C1=C(C)NC(C)=C(C(=O)OC)C1c1ccccc1[N+](=O)[O-]` [Nifedipine (Adalat, Procardia)], where the note is “in vivo”, the Dizziness entry is on record as “Neurologic: Dizziness (4% to 10%), Headache (19% to 23%)”; the Flushing result is “Dermatologic: Flushing (4% to 25%)”; the Headache entry is listed as “Neurologic: Dizziness (4% to 10%), Headache (19% to 23%)”; the Hypotension result is reported as “Cardiovascular: Hypotension (up to 5%), Palpitations (up to 7%),”. For the same compound, under “in vivo”, the Myocardial infarction result is “Cardiovascular: Myocardial infarction (up to 4%), Ventricular”; the Nausea entry is recorded as “Gastrointestinal: Nausea (up to 10%)”; the Palpitations result is “Cardiovascular: Hypotension (up to 5%), Palpitations (up to 7%),”; the Peripheral edema entry was “Peripheral edema (7% to 29%)”. For the same compound, the Ventricular arrhythmia entry (in vivo) is recorded as “arrhythmia (less than 0.5%)”.
Turning to `CCOC(=O)[C@H](CCc1ccccc1)N[C@@H](C)C(=O)N1[C@H](C(=O)O)C[C@@H]2CCC[C@@H]21` [Ramipril (Altace)], where the note is “in vivo”, the Cough entry is “Respiratory: Cough (8% to 12%)”; the Dizziness result was “Neurologic: Asthenia, Dizziness (2.2% to 4%), Headache (5.4%)”; the Headache result is “Neurologic: Asthenia, Dizziness (2.2% to 4%), Headache (5.4%)”; the Hypotension result is recorded as “Cardiovascular: Hypotension (11%)”.
